# Reference: a polymer gas permeability compilation
CH4 permeability [Barrer],CO2 permeability [Barrer],H2 permeability [Barrer],N2 permeability [Barrer],O2 permeability [Barrer],Compound
0.0576,2.5,6.61,0.069,0.398,*c1ccc(Cc2ccc(-n3c(=O)c4cc5c(=O)n(*)c(=O)c5cc4c3=O)cc2)cc1 (repeat unit)
121,1730,1400,113,374,*c1c(C)cc2c(c1C)C1c3ccccc3C2c2cc(C)c(N3C(=O)c4ccc(C(c5ccc6c(c5)C(=O)N(*)C6=O)(C(F)(F)F)C(F)(F)F)cc4C3=O)c(C)c21 (repeat unit)
–,14,–,1.1,3.5,*/C=C/c1ccc(*)cc1[Si](C)(C)CCCC (repeat unit)
1100,13100,6700,658,2360,*Oc1cc2c(cc1O*)C1(c3cc(C)c(C)cc3-2)c2cc(C)c(C)cc2-c2cc3c(cc21)Oc1c(C#N)c(*)c(*)c(C#N)c1O3 (repeat unit)
–,121,212,5.8,27.5,*NC(=O)c1ccc(C(c2ccc(C(=O)Nc3c(C)cc4c(c3C)C3c5ccccc5C4c4cc(C)c(*)c(C)c43)cc2)(C(F)(F)F)C(F)(F)F)cc1 (repeat unit)
0.244,14.1,45.4,0.37,3.29,*c1cc2c(cc1C)-c1cc(C)c(N3C(=O)c4ccc(S(=O)(=O)c5ccc6c(c5)C(=O)N(*)C6=O)cc4C3=O)cc1S2(=O)=O (repeat unit)
–,–,17.2,–,–,*Oc1ccc2nc(-c3ccccc3)c(-c3ccc(-c4nc5cc(*)ccc5nc4-c4ccccc4)cc3)nc2c1 (repeat unit)
1.13,25.1,49.6,0.757,4.53,*Oc1cc(C)c(C(c2cc(C(C)C)c(Oc3ccc(S(=O)(=O)c4ccc(*)cc4)cc3)cc2C)c2ccccc2C(=O)O)cc1C(C)C (repeat unit)
0.911,54,–,2.58,15.2,*C(=O)c1ccc(C(c2ccc3c(c2)C(=O)n2c-3nc3cc4nc(*)n(*)c4cc32)(C(F)(F)F)C(F)(F)F)cc1* (repeat unit)
45.2,734,434,37.8,87,*c1c(C)c(C)c(N2C(=O)c3ccc(C(c4ccc5c(c4)C(=O)N(*)C5=O)(C(F)(F)F)C(F)(F)F)cc3C2=O)c(C)c1C (repeat unit)
1.24,11.8,–,0.45,1.97,*c1ccc(N(c2ccc(N3C(=O)c4ccc(C(c5ccc6c(c5)C(=O)N(*)C6=O)(C(F)(F)F)C(F)(F)F)cc4C3=O)cc2)c2ccc(N(c3ccccc3)c3ccccc3)cc2)cc1 (repeat unit)
0.5,16.8,–,0.89,4.28,*c1ccc(N(c2ccc(OC)cc2)c2ccc(N3C(=O)c4ccc(C(c5ccc6c(c5)C(=O)N(*)C6=O)(C(F)(F)F)C(F)(F)F)cc4C3=O)cc2)cc1 (repeat unit)
–,–,4.03,0.02,0.211,*c1ccc(Cc2ccc(N3C(=O)c4ccc(C(=O)c5ccc6c(c5)C(=O)N(*)C6=O)cc4C3=O)cc2)cc1 (repeat unit)
0.195,7.73,28.2,0.499,3.29,*c1cc(C)c2c(c1)S(=O)(=O)c1cc(N3C(=O)c4ccc(-c5ccc6c(c5)C(=O)N(*)C6=O)cc4C3=O)cc(C)c1-2 (repeat unit)
0.2,9,29,0.42,2.4,*Nc1ccc(C(c2ccc(NC(=O)c3cccc(C(*)=O)c3)cc2)(C(F)(F)F)C(F)(F)F)cc1 (repeat unit)
0.14,3.3,8.9,0.13,0.75,*Oc1ccc(C(=O)c2ccc(-c3ccc(C(=O)c4ccc(Oc5ccc(C(C)(C)c6ccc(*)cc6)cc5)cc4)cc3)cc2)cc1 (repeat unit)
0.12,5.05,6.56,0.23,1.19,*c1ccc2c(-c3c(OC(C)=O)ccc4cc(N5C(=O)c6ccc(C(c7ccc8c(c7)C(=O)N(*)C8=O)(C(F)(F)F)C(F)(F)F)cc6C5=O)ccc34)c(OC(C)=O)ccc2c1 (repeat unit)

CH4 permeability [Barrer],CO2 permeability [Barrer],H2 permeability [Barrer],N2 permeability [Barrer],O2 permeability [Barrer],Compound
0.19,4.5,10.4,0.2,1.1,*Oc1ccc(Cc2ccc(Oc3ccc(S(=O)(=O)c4ccc(*)cc4)cc3)cc2)cc1 (repeat unit)
0.28,8.92,–,0.34,1.77,*c1ccc(Sc2ccc(Sc3ccc(N4C(=O)c5ccc(C(c6ccc7c(c6)C(=O)N(*)C7=O)(C(F)(F)F)C(F)(F)F)cc5C4=O)cc3)cc2)cc1 (repeat unit)
–,5.4,–,0.22,1.5,*Oc1ccc(S(=O)(=O)c2ccc(Oc3ccc(C(C)(C)c4ccc(*)c(C(O)(C(F)(F)F)C(F)(F)F)c4)cc3C(O)(C(F)(F)F)C(F)(F)F)cc2)cc1 (repeat unit)
0.6,26.3,60.2,1.1,5.85,*c1ccc2c3c(ccc2c1)OC1CC3c2c(ccc3cc(N4C(=O)c5ccc(C(c6ccc7c(c6)C(=O)N(*)C7=O)(C(F)(F)F)C(F)(F)F)cc5C4=O)ccc23)O1 (repeat unit)
0.85,30.1,–,0.83,3.59,*c1ccc(Oc2ccc(N3C(=O)c4cc(Oc5ccccc5)c(-c5cc6c(cc5Oc5ccccc5)C(=O)N(*)C6=O)cc4C3=O)cc2)cc1 (repeat unit)
13,220,126,9,32,*c1ccc(-c2ccc(-c3ccc(C(*)(c4ccccc4)C(F)(F)F)cc3)cc2)cc1 (repeat unit)
0.264,6.96,–,0.291,1.86,*Oc1ccc(C(=O)c2ccccc2-c2ccccc2C(=O)c2ccc(Oc3c(C)cc(-c4cc(C)c(*)c(C)c4)cc3C)cc2)cc1 (repeat unit)
–,60,–,3.9,12,*/C=C/c1ccc(*)cc1[Si](C)(C)CCCCCCCC (repeat unit)
0.34,6.8,36,0.321,1.8,*Oc1ccc(C(C)(C)c2ccc(C(C)(C)c3ccc(Oc4ccc(S(=O)(=O)c5ccc(*)cc5)cc4)cc3)cc2)cc1 (repeat unit)
–,–,68.6,1.62,8.2,*c1c(C)cc(C)c(N2C(=O)c3ccc(Sc4ccc5c(c4)C(=O)N(*)C5=O)cc3C2=O)c1C (repeat unit)
3300,7200,3900,1300,2100,*C(=C(*)c1cccc(O[Si](C)(C)C(C)(C)C)c1)c1ccc(C(C)(C)C)cc1 (repeat unit)
0.052,1.5,8,0.066,0.39,*Oc1cccc(C(C)(C)c2ccc(Oc3ccc(S(=O)(=O)c4ccc(*)cc4)cc3)cc2)c1 (repeat unit)
12000,26000,11000,5100,6600,*C(=C(*)c1ccc2c(c1)C(C)(C)c1ccccc1-2)c1ccc(F)c(F)c1 (repeat unit)
62,1100,860,42,190,*Oc1cc2c(cc1O*)C1(CC2(C)C)CC(C)(C)c2cc3c(cc21)Oc1cc2nc4cc5c(cc4nc2cc1O3)C(C)(C)CC51CC(C)(C)c2cc3nc4cc(*)c(*)cc4nc3cc21 (repeat unit)
2.43,61.8,151,5.2,20,*c1ccc(Oc2ccc(C3(c4ccc(Oc5ccc(N6C(=O)c7ccc(C(c8ccc9c(c8)C(=O)N(*)C9=O)(C(F)(F)F)C(F)(F)F)cc7C6=O)cc5C(F)(F)F)cc4)c4ccccc4-c4ccccc43)cc2)c(C(F)(F)F)c1 (repeat unit)
3310,11300,4090,1240,2380,*C1C(*)C2CC1C1C2C([Si](C)(C)C)C1[Si](C)(C)C (repeat unit)
0.0397,1.85,–,0.0544,0.368,*c1ccc(Oc2ccc(S(=O)(=O)c3ccc(Oc4ccc(N5C(=O)c6ccc(-c7ccc8c(c7)C(=O)N(*)C8=O)cc6C5=O)cc4)cc3)cc2)cc1 (repeat unit)

Compound,CH4 permeability [Barrer],CO2 permeability [Barrer],H2 permeability [Barrer],N2 permeability [Barrer],O2 permeability [Barrer]
*CC1CC(*)OCO1 (repeat unit),–,–,0.93,0.018,0.024
*C(C)=C(*)[Si](C)(C)C (repeat unit),14500,31900,15500,5650,12200
*CC(*)(C)C (repeat unit),–,–,13.3,0.76,2.89
*CC(*)c1ccc(C)cc1 (repeat unit),2.2,29.8,–,1.5,7.2
*Cc1ccc(C*)cc1 (repeat unit),–,1.3,3.2,0.047,0.235
*Cc1cc(Cl)c(C*)cc1Cl (repeat unit),–,0.783,–,0.0271,0.181
